This note sets out measurements from paper PMC7686308, “Overcoming the blood–brain barrier by Annexin A1-binding peptide to target brain tumours” (British Journal of Cancer, 2020).

Ends that are not written are not given here.

For one assay, the system named is C6 cells. Put plainly: Cytotoxicity on C6 cells (CellTiter Glo). The settings on record: C6, 2 days, CellTiter Glo, GraphPad Prism; for IC50: unit from plot axis. The format is cell-based, rat. The protocol: (§1) Drug concentration (OM) Drug concentration ( nM) […]
(§2) Supplementary Fig 7 . Cytotoxicity of peptide-conjugated SN38, free peptide s and unconjugated SN-38 and irinotecan (CPT-11) on C6 and B16 cells cultured in vitro. Rat glioma C6 and mouse melanoma B16 cells were treated with reagents shown along the top panels at the concentration indicated and cultured for 2 days. Cell viability was determined by a CellTiter Glo (Promega) assay. The IC50 of each reagent was determined using GraphPad Prism program. N.D.: not determined.

The next assay has as its system B16 cells. Put plainly: Cytotoxicity on B16 cells (CellTiter Glo). The settings on record: B16, 2 days, CellTiter Glo, GraphPad Prism; for IC50: unit from plot axis. Type of assay: cell-based, mouse. The protocol:
as §1, §2

In assay [1] the test system is ANXA1 exhibiting a free N-terminus. Put plainly: FCS binding to ANXA1 with free N-terminus. Further details: species or system human. The settings on record: IF7C-A546, 37 °C, 1 h, increase in diffusion time. As to the method: (§3) A mixture of IF7C-A546 with Anxa1 or MC16 (50 μl) was loaded into each well of a 96-well plate and incubated at 37 °C for 1 h. FCS was performed with the MF20 analytical system (Olympus) using a 543 nm He–Ne laser for illumination. Each sample was measured five times with a data acquisition time of 10 sec per measurement. IF7C(RR) binding was defined as an increase in translational diffusion time relative to a control.
(§4) Fig. 2 Binding of IF7 to the ANXA1 N-terminal domain and full-length ANXA1 protein in vitro. a Plate binding assay of N-terminal biotinylated IF7C(RR) to human MC16 peptide and its mutants. Each synthetic MC16 and its mutant peptide (10 nmoles) was bound to maleimide-activated plastic well through its C-terminal cysteine residue. Biotinylated IF7C(RR) peptide (1 μg/mL) was added to each well and binding of biotinylated peptide was detected by peroxidase-conjugated streptavidin and peroxidase colour reaction. b FCS analysis of IF7 with ANXA1 (left) and with MC16 peptides (right) in solution. […] The proposed model was further validated by dG scoring, which was calculated using MOE software with GBVI/WSA, a program allows us to compare calculated and observed energetics.[59] The IF7 docking pose was calculated to be −3.7 kcal/mol.

Assay [2] relates to N-terminally His-tagged ANXA1. Put plainly: FCS binding to N-terminally His-tagged ANXA1. The settings on record: IF7C-A546, 37 °C, 1 h, diffusion time. Also on record: species or system human. The protocol:
as §3, §4

Assay [3] relates to B16-Luc brain and subcutaneous tumours. Put plainly: B16-Luc dual-tumour model in C57BL/6 mice. Type of assay: in vivo, mouse (C57BL/6). The conditions noted are these: irinotecan 50 μmoles/kg i.v. daily, 6 days. As to the method:
C6-Luc cells (5 × 10^4 suspended in 2 μl PBS) were injected into C57BL/6 mouse brain striatum using a stereotaxic frame as described previously.[21] Seven days later, mice underwent imaging for luciferase-expressing tumours. To do so, 100 μl luciferin (30 mg/ml PBS) was injected peritoneally. Mice were then anesthetised under isoflurane gas (20 ml/min) supplemented with oxygen (1 ml/min) and placed under a camera equipped with a Xenogen IVIS 200 imager at both the SBP and AIST animal facilities. Photon numbers were measured for 1–10 sec or for 1 min. For the dual-tumour model, C6-Luc cells were similarly injected into the brain of NOD-SCID mice. When a brain tumour became detectable by IVIS imager, C6-Luc cells (2 × 10^5 suspended in 100 μl PBS) were injected subcutaneously into the dorsal flank of the same mice. Photon numbers in brain and subcutaneous tumours were measured using the IVIS imager. The dual-tumour model was also produced using B16-Luc cells in the isogeneic C57BL/6 mouse. B16-Luc cells (5 × 10^4) were injected into brains of 8–10-weeks-old C57BL/6 female mice as described above for C6-Luc cells. When brain tumours became detectable, B16-Luc cells (2 × 10^5 cells) were injected subcutaneously into the dorsal flank of the same mouse.
IF7C(RR)-SN38 was injected intravenously through the tail vein into tumour-bearing mice once photon number of C6-Luc brain tumour reached 5 × 10^4, which usually occurred after 2 weeks. IF7C(RR)-SN38 (142 μg or 0.0567 μmoles) dissolved in 10 μl dimethylsulfoxide (DMSO) diluted with 100 μl of 50% Cremophore EL in ethanol plus 90 μl PBS was injected intravenously through the tail vein. As the average body weight of a mouse was 18 g, IF7C(RR)-SN38 dose per injection was 3.15 μmoles/kg. For B16-Luc brain tumours, IF7C(RR)-SN38 formulated with Cremophore EL was used at the dosage 7.0 μmoles/kg. Irinotecan (CPT-11), a water soluble SN38 prodrug, was dissolved in PBS and intravenously injected into mice at 50 μmoles /kg. In another set of experiments, brain tumour-bearing mice were treated with IF7C(RR)-SN38 (100 μg or 0.0412 μmoles) dissolved in 10 μl DMSO followed by dilution with 100 μl 10% Solutol HS15 in water. In that case, drug dosage was 2.5 μmoles/kg. Similarly formulated C(RR)-SN38 served as control.
Fig. 4 Effect of IF7C(RR)-SN38 on the dual-tumour model mice. a Dual-tumour model was established with C6-Luc cells in NOD-SCID mice. C6-Luc cells were grown both in brain and under the skin of mice. When tumours in brain and subcutaneous grew by showing photon number more than 2×10^4, IF7C(RR)-SN38 (3.15 μmoles/kg) was injected intravenously daily through tail vein for 9 days. b Effect of IF7C(RR)-SN38 on a dual-tumour model with B16-Luc melanoma cells in C57BL/6 mice. Growth of B16-Luc cells were monitored as in a similar manner as in a, followed by intravenous injection with either IF7C(RR)-SN38 (7.0 μmoles/kg), irinotecan (CPT-11) (50 μmoles/kg) or buffer control daily for 6 days. The drug was diluted in Cremophore EL. In each a and b, error bars denote means ± SEM. Statistical analysis was assessed by Student’s t-test.

The next assay addresses T1, Annexin A1 (Homo sapiens, UniProt P04083).
T1 chain: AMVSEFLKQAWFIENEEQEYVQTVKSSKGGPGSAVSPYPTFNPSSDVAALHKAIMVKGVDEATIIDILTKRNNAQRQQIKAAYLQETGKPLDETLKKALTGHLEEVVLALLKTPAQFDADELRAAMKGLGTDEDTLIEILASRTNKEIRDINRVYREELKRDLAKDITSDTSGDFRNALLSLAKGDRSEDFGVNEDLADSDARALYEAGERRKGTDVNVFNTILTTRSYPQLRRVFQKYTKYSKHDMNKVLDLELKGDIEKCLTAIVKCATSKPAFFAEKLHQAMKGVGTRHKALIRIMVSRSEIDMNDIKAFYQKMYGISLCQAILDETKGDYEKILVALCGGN
Put plainly: QCM.

Assay [4] has as its target T2, MC16 (Annexin A1 N-terminal peptide), tetrameric (Homo sapiens).
T2 chain: MAMVSEFLKQAWFIEC
Put plainly: QCM.

As for `CCc1c2c(nc3ccc(O)cc13)-c1cc3c(c(=O)n1C2)COC(=O)[C@]3(O)CC` [SN-38], in the assay with C6 cells, the logIC50 was 1.433 and the IC50 was determined as 0.0271 µM. In the assay on B16 cells, the logIC50 turned out to be 1.499 and the IC50 stood at 0.0316 µM.
As to “IFLLWQRCRR [IF7C(RR), IF7 with C-terminal cysteine extended by two arginines]”, the “binding in solution to untagged ANXA1” value in assay [1] is reported as “increased significantly compared to the control”. Moreover, the “binding in solution to N-terminally His-tagged ANXA1” value in assay [2] is “did not significantly increase”.
For the molecule `CCc1c2c(nc3ccc(OC(=O)N4CCC(N5CCCCC5)CC4)cc13)-c1cc3c(c(=O)n1C2)COC(=O)[C@]3(O)CC` [Irinotecan], the logIC50 in the assay with C6 cells worked out at 4.103; in the assay on B16 cells, 4.443. Besides, the IC50 in the assay with C6 cells (Rattus norvegicus, 48 h) came out at 12.7 µM; in the assay on B16 cells (Mus musculus, 48 h), 27.7 µM. The “brain tumour growth (photon number)” value in assay [3] is given as “minimally suppressed brain tumour growth”. Also, the “subcutaneous tumour growth (photon number)” value in assay [3] is “suppressed subcutaneous tumour growth”.
In the assay with Annexin A1, IFLLWQRCRR yielded a Kd of 0.0601 µM.
Regarding IFLLWQRCRR (not fully specified (residue 8); also: tetramer on 4-arm PEG via Cys), in assay [4], the Kd was 0.247 µM.
